Test results: patent US20250108038A1 (priority 2023, published 2025)
Values joined by “and” are separate entries in the source; they are usually repeats but may differ in a detail not shown here. Equal entries are not always repeated.

Tested on: Long Evans rats
Assay: Behavioral satiety sequence (BSS)
Assay type: in vivo, Long Evans rat
From the text: The Behavioural Satiety Sequence (BSS) is a technique used to evaluate physiological satiety. It is based on the expression of a sequence of behaviors including eating, grooming, locomotor activity, followed by resting, which are typically observed in rodents post-ingestion (Halford et al, 1998, Pharmacology Biochemistry and Behaviour. 61(2): 159-168). The BSS is a widely used model for determining the effects of novel pharmaceuticals on food intake and measures of satiety in rodents (Oliveira et al, 2011, Revista de Nutrição. 24(4) 619-628), and to discriminate the cause of reduced food intake following pharmacological manipulation. For example, treatments that may reduce food intake by non-specific mechanisms, such as immobility, malaise, and taste adulteration, will disrupt this sequence (Halford et al, 1998, Pharmacology Biochemistry and Behaviour. 61(2): 159-168).
Specifically, 12 male Long-Evans rats were food-deprived for 22 h with a 2 h feeding period each day. Rats were trained to consume daily food during the 2 h period over 25 days. The testing phase was initiated once the rats consistently consumed 16-18 g of food per day with ≤10% variance in amount of feed consumed. Feeding took place in designated individual boxes in a quiet room separate from the housing room. Continuous remote monitoring via video camera during feeding was used to assess the BSS. Food consumption was measured by weighing the total available food before and after the 2 h feeding window, correcting for spillage. Lorcaserin (1 mg/kg) was included as a reference control (Higgins et al, 2011, Neuropsychopharmacology. 37(5): 1177-1191). Subjects were tested using a repeated-measures, Latin square design with 2-3 days wash-out between treatment cycles.
On scheduled test days, animals were monitored remotely via video camera during the feeding access period. The occurrence of four mutually exclusive behaviors (eating/drinking, grooming, active, rest) were individually scored. Over the 2 h feeding period, behaviors were assessed every 30 seconds. Scores were compiled into 23 5 min timebins (timebin 24 was removed due to early removal of animals) and the frequency of each behavior within each timebin was calculated to determine a temporal frequency of each measure (Rodgers et al, 2010, Pharmacology Biochemistry and Behaviour. 97: 3-14). Percentage time was plotted for each behavioral sequence in each timebin to compare between treatment groups (Higgins et al, 2011, Neuropsychopharmacology. 37(5): 1177-1191).

[1] = 0.3 mg/kg, raw score per animal LT-1 to LT-12
[2] = 1 mg/kg, raw data per animal (LT-1 to LT-12)

`Clc1ccc(C2(OCC3OCCO3)c3ccccc3C3=NCCN32)cc1` (stereo not drawn) [Compound I-19] was tested, and the “BSS scoring A (active), Time Bin 16 (75-80 TOTAL)” value [1] was 0 (6×) and 2 (3×) and 3 (3×), the “BSS scoring A (active), Time Bin 17 (80-85 TOTAL)” value [1] was 0 (3×) and 2 and 1 (5×) and 3 and 5 (2×) and the “BSS scoring A (active), Time Bin 18 (85-90 TOTAL)” value [1] was 4 and 0 (5×) and 8 and 2 (2×) and 1 and 5 (2×). For the same compound, the “BSS scoring E (eating/drinking), Time Bin 13 (60-65 TOTAL)” value [1] was 10 (3×) and 7 (4×) and 8 (3×) and 9 and 6, the “BSS scoring E (eating/drinking), Time Bin 14 (65-70 TOTAL)” value [1] was 9 (5×) and 6 and 10 (2×) and 7 and 8 (2×) and 2 and the “BSS scoring E (eating/drinking), Time Bin 15 (70-75 TOTAL)” value [1] was 9 and 6 (4×) and 4 and 1 and 7 (3×) and 5 and 3. The “BSS scoring E (eating/drinking), Time Bin 16 (75-80 TOTAL)” value [1] was 10 (4×) and 6 (2×) and 9 and 8 and 7 (3×) and 5, the “BSS scoring E (eating/drinking), Time Bin 17 (80-85 TOTAL)” value [1] was 10 (3×) and 5 and 4 (4×) and 7 (2×) and 9 (2×) and the “BSS scoring E (eating/drinking), Time Bin 18 (85-90 TOTAL)” value [1] was 4 and 9 (3×) and 8 and 0 and 6 (2×) and 10 and 3 (2×) and 7. The “BSS scoring G (grooming), Time Bin 13 (60-65 TOTAL)” value [1] was 0 (8×) and 1 (4×), the “BSS scoring G (grooming), Time Bin 14 (65-70 TOTAL)” value [1] was 0 (9×) and 1 (3×) and the “BSS scoring G (grooming), Time Bin 15 (70-75 TOTAL)” value [1] was 0 (7×) and 1 (5×). For the same compound, the “BSS scoring G (grooming), Time Bin 16 (75-80 TOTAL)” value [1] was 0 (11×) and 1, the “BSS scoring G (grooming), Time Bin 17 (80-85 TOTAL)” value [1] was 0 (8×) and 2 (2×) and 1 (2×) and the “BSS scoring G (grooming), Time Bin 18 (85-90 TOTAL)” value [1] was 2 (2×) and 1 (8×) and 0 (2×). For the same compound, the “BSS scoring R (resting), Time Bin 13 (60-65 TOTAL)” value [1] was 0 (7×) and 2 (3×) and 1 (2×), the “BSS scoring R (resting), Time Bin 14 (65-70 TOTAL)” value [1] was 0 (7×) and 1 (4×) and 2 and the “BSS scoring R (resting), Time Bin 15 (70-75 TOTAL)” value [1] was 1 (3×) and 0 (6×) and 3 and 2 (2×). For the same compound, the “BSS scoring R (resting), Time Bin 16 (75-80 TOTAL)” value [1] was 0 (6×) and 2 (3×) and 1 (3×), the “BSS scoring R (resting), Time Bin 17 (80-85 TOTAL)” value [1] was 0 (7×) and 1 (2×) and 4 and 3 and 2 and the “BSS scoring R (resting), Time Bin 18 (85-90 TOTAL)” value [1] was 0 (6×) and 1 (5×) and 2. For the same compound, the “BSS scoring A (active), Time Bin 19 (90-95 TOTAL), AVG” value (1 mg/kg, AVG of LT-1 to LT-12) was 0.14, the “BSS scoring A (active), Time Bin 20 (95-100 TOTAL), AVG” value (1 mg/kg, AVG of LT-1 to LT-12) was 0.10 and the “BSS scoring A (active), Time Bin 21 (100-105 TOTAL), AVG” value (1 mg/kg, AVG of LT-1 to LT-12) was 0.14. The “BSS scoring A (active), Time Bin 22 (105-110 TOTAL), AVG” value (1 mg/kg, AVG of LT-1 to LT-12) was 0.15, the “BSS scoring A (active), Time Bin 23 (110-115 TOTAL), AVG” value (1 mg/kg, AVG of LT-1 to LT-12) was 0.18 and the “BSS scoring A (active), Time Bin 24 (115-120 TOTAL), AVG” value (1 mg/kg, AVG of LT-1 to LT-12) was 0.15. The “BSS scoring E (eating/drinking), Time Bin 19 (90-95 TOTAL), AVG” value (1 mg/kg, AVG of LT-1 to LT-12) was 0.58, the “BSS scoring E (eating/drinking), Time Bin 20 (95-100 TOTAL), AVG” value (1 mg/kg, AVG of LT-1 to LT-12) was 0.73 and the “BSS scoring E (eating/drinking), Time Bin 21 (100-105 TOTAL), AVG” value (1 mg/kg, AVG of LT-1 to LT-12) was 0.61. For the same compound, the “BSS scoring E (eating/drinking), Time Bin 22 (105-110 TOTAL), AVG” value (1 mg/kg, AVG of LT-1 to LT-12) was 0.63, the “BSS scoring E (eating/drinking), Time Bin 23 (110-115 TOTAL), AVG” value (1 mg/kg, AVG of LT-1 to LT-12) was 0.59 and the “BSS scoring E (eating/drinking), Time Bin 24 (115-120 TOTAL), AVG” value (1 mg/kg, AVG of LT-1 to LT-12) was 0.41. For the same compound, the “BSS scoring G (grooming), Time Bin 19 (90-95 TOTAL), AVG” value (1 mg/kg, AVG of LT-1 to LT-12) was 0.02, the “BSS scoring G (grooming), Time Bin 20 (95-100 TOTAL), AVG” value (1 mg/kg, AVG of LT-1 to LT-12) was 0.01 and the “BSS scoring G (grooming), Time Bin 21 (100-105 TOTAL), AVG” value (1 mg/kg, AVG of LT-1 to LT-12) was 0.01. The “BSS scoring G (grooming), Time Bin 22 (105-110 TOTAL), AVG” value (1 mg/kg, AVG of LT-1 to LT-12) was 0.08, the “BSS scoring G (grooming), Time Bin 23 (110-115 TOTAL), AVG” value (1 mg/kg, AVG of LT-1 to LT-12) was 0.06 and the “BSS scoring G (grooming), Time Bin 24 (115-120 TOTAL), AVG” value (1 mg/kg, AVG of LT-1 to LT-12) was 0.02. The “BSS scoring R (resting), Time Bin 19 (90-95 TOTAL), AVG” value (1 mg/kg, AVG of LT-1 to LT-12) was 0.26, the “BSS scoring R (resting), Time Bin 20 (95-100 TOTAL), AVG” value (1 mg/kg, AVG of LT-1 to LT-12) was 0.17 and the “BSS scoring R (resting), Time Bin 21 (100-105 TOTAL), AVG” value (1 mg/kg, AVG of LT-1 to LT-12) was 0.24. For the same compound, the “BSS scoring R (resting), Time Bin 22 (105-110 TOTAL), AVG” value (1 mg/kg, AVG of LT-1 to LT-12) was 0.14, the “BSS scoring R (resting), Time Bin 23 (110-115 TOTAL), AVG” value (1 mg/kg, AVG of LT-1 to LT-12) was 0.18 and the “BSS scoring R (resting), Time Bin 24 (115-120 TOTAL), AVG” value (1 mg/kg, AVG of LT-1 to LT-12) was 0.26. The “BSS scoring A (active), Time Bin 19 (90-95 TOTAL)” value [2] was 0 (6×) and 4 and 1 (3×) and 7 and 3, the “BSS scoring A (active), Time Bin 20 (95-100 TOTAL)” value [2] was 0 (8×) and 6 and 3 and 1 and 2 and the “BSS scoring A (active), Time Bin 21 (100-105 TOTAL)” value [2] was 0 (7×) and 5 (3×) and 1 (2×). The “BSS scoring A (active), Time Bin 22 (105-110 TOTAL)” value [2] was 1 (3×) and 3 (3×) and 0 (4×) and 4 and 2, the “BSS scoring A (active), Time Bin 23 (110-115 TOTAL)” value [2] was 8 and 0 (5×) and 4 (2×) and 2 and 1 (3×) and the “BSS scoring A (active), Time Bin 24 (115-120 TOTAL)” value [2] was 6 and 0 (6×) and 1 and 3 and 2 (2×) and 4. The “BSS scoring E (eating/drinking), Time Bin 19 (90-95 TOTAL)” value [2] was 10 (3×) and 8 (3×) and 5 and 9 and 0 (3×) and 2, the “BSS scoring E (eating/drinking), Time Bin 20 (95-100 TOTAL)” value [2] was 10 (5×) and 6 and 3 and 8 and 2 and 9 (2×) and 0 and the “BSS scoring E (eating/drinking), Time Bin 21 (100-105 TOTAL)” value [2] was 10 (5×) and 2 (2×) and 5 and 3 (2×) and 8 and 0. The “BSS scoring E (eating/drinking), Time Bin 22 (105-110 TOTAL)” value [2] was 9 and 6 (4×) and 10 and 5 and 7 (2×) and 8 and 3 (2×), the “BSS scoring E (eating/drinking), Time Bin 23 (110-115 TOTAL)” value [2] was 0 and 7 (4×) and 10 (2×) and 3 and 5 (2×) and 6 and 4 and the “BSS scoring E (eating/drinking), Time Bin 24 (115-120 TOTAL)” value [2] was 0 (3×) and 2 (2×) and 10 and 5 (3×) and 3 and 9 and 8. For the same compound, the “BSS scoring G (grooming), Time Bin 19 (90-95 TOTAL)” value [2] was 0 (10×) and 1 (2×), the “BSS scoring G (grooming), Time Bin 20 (95-100 TOTAL)” value [2] was 0 (11×) and 1 and the “BSS scoring G (grooming), Time Bin 21 (100-105 TOTAL)” value [2] was 0 (11×) and 1. For the same compound, the “BSS scoring G (grooming), Time Bin 22 (105-110 TOTAL)” value [2] was 0 (7×) and 1 (2×) and 2 (2×) and 3, the “BSS scoring G (grooming), Time Bin 23 (110-115 TOTAL)” value [2] was 1 (3×) and 0 (7×) and 2 (2×) and the “BSS scoring G (grooming), Time Bin 24 (115-120 TOTAL)” value [2] was 0 (10×) and 1 (2×). For the same compound, the “BSS scoring R (resting), Time Bin 19 (90-95 TOTAL)” value [2] was 0 (5×) and 2 (3×) and 1 and 9 and 8 and 7, the “BSS scoring R (resting), Time Bin 20 (95-100 TOTAL)” value [2] was 0 (6×) and 4 and 1 (2×) and 2 and 5 and 7 and the “BSS scoring R (resting), Time Bin 21 (100-105 TOTAL)” value [2] was 0 (5×) and 3 (3×) and 2 (2×) and 6 and 10. For the same compound, the “BSS scoring R (resting), Time Bin 22 (105-110 TOTAL)” value [2] was 0 (5×) and 1 (2×) and 4 (2×) and 2 (2×) and 3, the “BSS scoring R (resting), Time Bin 23 (110-115 TOTAL)” value [2] was 1 (3×) and 3 (4×) and 0 (3×) and 2 and 4 and the “BSS scoring R (resting), Time Bin 24 (115-120 TOTAL)” value [2] was 4 (2×) and 7 (2×) and 0 (4×) and 2 and 5 and 1 (2×). The “BSS scoring A (active), Time Bin 19 (90-95 TOTAL), AVG” value (3 mg/kg, AVG of LT-1 to LT-12) was 0.18, the “BSS scoring A (active), Time Bin 20 (95-100 TOTAL), AVG” value (3 mg/kg, AVG of LT-1 to LT-12) was 0.19 and the “BSS scoring A (active), Time Bin 21 (100-105 TOTAL), AVG” value (3 mg/kg, AVG of LT-1 to LT-12) was 0.22. The “BSS scoring A (active), Time Bin 22 (105-110 TOTAL), AVG” value (3 mg/kg, AVG of LT-1 to LT-12) was 0.20, the “BSS scoring A (active), Time Bin 23 (110-115 TOTAL), AVG” value (3 mg/kg, AVG of LT-1 to LT-12) was 0.19 and the “BSS scoring A (active), Time Bin 24 (115-120 TOTAL), AVG” value (3 mg/kg, AVG of LT-1 to LT-12) was 0.27.
